From US20060051295A1, “Estrogen receptor interaction with a transcription factor” (priority 2002, published 2006) come the findings set out here.

In one assay the test system is cRel + ER beta. Briefly: Transrepression of c-Rel induced reporters, U-2 OS co-transfected with ERβ. The class given is cell-based, human. The protocol: Next was determined whether transrepression by ER is limited to particular NF-κB types, such as c-Rel or RelA, by overexpression of these NF-κB proteins in U-2 OS cells (Table 2). Again, the promoter-reporter constructs for the E-selectin, ICAM and VCAM genes were used in these experiments. Significant activation of these reporters by overexpression of c-Rel was observed. This activation was strongly and reproducibly transrepressed by both ERα and ERβ (Table 2).
Table 2. Estrogen-dependent transrepression of the promoters from E-selectin, VCAM and ICAM and a synthetic NF-κB responsive reporter, measured as the amount of luciferase activity. Transient (co-)transfections of ERα (or ERβ) and reporter were performed in U-2 OS cells. Reporter activity was induced by cellular exposure to Il-1β or by co-transfection of the NF-κB genes c-Rel or RelA. […] For detailed information on the composition of the reporters used, see appendix 1. The hyphen (-) in the table indicates the test with cells without transfected cDNA and no additives in medium; n.d. means: not determined.
For transient transfections, cells were seeded in 6-well plates (2.10^5 cells/well). After two or three days the cells were transfected with reporter, expression vectors and β-galactosidase control vector. Two different experimental settings were used. For testing transrepression of IL-1β induced promoter activity, cells were transfected with 1 μg reporter construct, 1 μg expression vector (containing either ERα, ERβ or GR), and 0.25 μg of β-galactosidase control plasmid. For testing transrepression in combination with c-Rel or ReLA overexpression, cells were transfected with 1 μg reporter construct, 1 μg expression vector (containing either ERα, ERβ or GR) and 0.1 or 1.0 μg expression vector containing c-Rel or RelA and 0.25 μg of β-galactosidase control vector. Equivalent amounts of DNA were obtained by adding the appropriate expression vector that lacks an insert. Transient transfection was performed using lipofectin reagent (Life Technologies). […] The transfected cells were incubated overnight with test compounds prior to cell lysis. Measurement of luciferase and P-galactosidase activity were performed using respectively the luciferase assay system (Promega) and Galacto-light plus (Tropix) according to the manufacturers' protocols and measured on the Victor 1420 multilabel counter, Wallac. Detection of β-galactosidase activity was used as a control for transfection efficiency.

A further assay concerns cRel. Briefly: Yeast two-hybrid cRel, no partner. The class given is cell-based. The text has this: A yeast two-hybrid assay is a cellular method to quantify the degree of interaction between two proteins. This is done by producing constructs that encode for fusion proteins of the two proteins to be studied, in this case ER and c-Rel, with either the transactivating or DNA binding part of the Gal4. The transactivating and DNA binding part of gal are separately not capable of inducing reporter activity of a gal4-responsive β-galactosidase reporter construct. Due to the interaction of the two proteins the transactivating and DNA binding parts of Gal4 will come in close proximity and as a result induction of a gal-responsive reporter will occur. More specificcally, in this embodiment of the invention the estrogen receptor is fused to the DNA binding domain (DBD) of Gal4, whereas c-Rel is fused to the activation domain (AD) of Gal4. The ER/Gal4-DBD fusion protein will bind to Gal4 response elements that are upstream of the reporter gene β-galactosidase in the yeast strain. Interaction between ER and c-Rel is compound dependent, therefore increasing concentrations of compound in the in vitro system will increase the number of ER and cRel molecules that interact, that can be measured as an increase of β-galactosidase reporter activity until saturation levels are reached. The amount of β-galactosidase reporter activity therefore is a measure for the degree of interaction between estrogen receptor and c-Rel.
Table 5. […] In this assay format, ERα (or ERβ) was fused to the DNA binding domain of GAL4 whereas c-Rel (or RelA) was fused to the activation domain of GAL4. Interaction between ER and NF-κB yields a transcriptionally active complex, that induces the LacZ reporter gene which results in quantifiable β-galactosidase activity. n.d. means: not determined.
pKCRE-ERα, pKCRE-ERβ and pNGV1-GR contain the human wild-type estrogen receptor α (ERα), ERβ or GR respectively under control of the SV40 promoter. The pCMV4-c-Rel expression vector was produced by cloning of the coding region of c-Rel into the pCMV4 vector (Andersson et al., 1989). pGL3-ELAM, pGL3-VCAM and pGL3-ICAM have been constructed based on PCR using the sequences as outlined in appendix 1. The luciferase reporter plasmid 3*NF-κB-TK was constructed by inserting three repeats of the NF-κB binding site from the ICAM promoter (van de Stolpe et al.; J. Biol Chem. 269: 6185-6192. 1994) in front of the herpes simplex virus thymidine kinase (HSV-TK) promoter. The TK promoter was cloned into the Bgl II-site of pGL3-basic (Promega). The triple repeat of NF-κB binding sites was constructed by annealing the oligonucleotide primers 5′-[…]-3′ and 5′-[…]-3′ followed by PRC amplification and subcloning in the pCR™2.1 vector. The insert was excised using HindIII, blunted with Klenow DNA polymerase and ligated into the SmaI site of pGL3-tk-luc. 4xERE-TATA Luc (plasmid nr. 460) contains four repeats of an estrogen responsive element followed by a TATA box and a luciferase gene. The pSV-β-Galactosidase (pSVβ) control vector (Promega) served as a positive control vector for monitoring transfection efficiencies of mammalian cells. The SV40 early promoter and enhancer drive transcription of the LacZ gene which encodes the β-Galactosidase enzyme. The yeast 2-hybrid constructs pGAD424-ERα, pGAD424-ERαdAB and pGAD424-ERβ were constructed by cloning respectively the human ERα, the ERα without the AB domain and the human ERβ cDNA in pGAD424. pGAD424-ERα LBD was constructed by cloning the LBD of ERα, obtained by PCR, in the EcoRI and SalI sites of pGAD424 vector. pGBT9-c-Rel was constructed by cloning the c-Rel fragment, obtained by PCR on pCMV4-c-Rel in the EcoRI and BamHI sites of pGBT9. The p65/RelA cDNA was obtained by PCR on the pCMV4-p65.

Assay [1] relates to E-selectin (ELAM) gene expression. Briefly: Rabbit atherogenic diet model, E-selectin mRNA in aorta bow (RNase protection).

The structures appear in SMILES notation.

As to `C[C@]12CC[C@@H]3c4ccc(O)cc4CC[C@H]3[C@@H]1CC[C@@H]2O` [Org E2, 17β-estradiol], the “luciferase activity, ELAM+ reporter” value with cRel + ER beta is listed as 3708. Besides, in the assay on cRel + ER beta, the “luciferase activity, ELAM− reporter” value stood at 1495. The “luciferase activity, ICAM reporter” value in the assay with cRel + ER beta worked out at 1611. In the assay on cRel + ER beta, the “luciferase activity, VCAM reporter” value worked out at 882. The β-galactosidase activity was 1251 in the assay on cRel (E2 0.0003 nM); 1135 with cRel (E2 0.003 nM); 1093 in the assay with cRel (E2 0.01 nM); 1202 in the assay with cRel (E2 0.03 nM); 1204 in the assay with cRel (E2 0.1 nM); 1202 in the assay with cRel (E2 0.3 nM). For the same compound, the β-galactosidase activity in the assay on cRel (E2 1 nM) is recorded as 1145; in the assay with cRel (E2 3 nM), 1246; in the assay on cRel (E2 10 nM), 1146; with cRel (E2 30 nM), 1411; in the assay with cRel (E2 100 nM), 1261. Further, the “ELAM mRNA level (RNase protection, divided by GAPDH signal)” value in assay [1] (diet 2 weeks, 4 hours after 3 μg/kg s.c.) turned out to be 0; in assay [1] (diet 2 weeks, 12 hours after 3 μg/kg s.c.), 0.0003897; in assay [1] (diet 4 weeks, 12 hours after 3 μg/kg s.c.) it was 0; in assay [1] (diet 8 weeks, 4 hours after 3 μg/kg s.c.), 0.0006813; in assay [1] (diet 18 weeks, 4 hours after 3 μg/kg s.c.), 0.002788; in assay [1] (diet 18 weeks, 12 hours after 3 μg/kg s.c.), 0.0008307.
